pIC50: −log10 of the molar value. Each block holds one compound with its values, some of them ahead of it.
Tested on: 596521-263-R-J1-PDC complex spheroids, viability % of control
Assay: Anticancer human tumor 596521-263-R-J1-PDC patient-derived soft tissue sarcoma cell line growth inhibition [GQUAD]
Settings: for pIC50: curve of first compound; for viability, T/C: stronger effect = lower value
Procedure, shortened: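 Tumor cells were grown as complex spheroids with HUVEC endothelial cells and mesenchymal stem cells as stroma. G-quadruplex stabilizers were combined with targeted agents over half-log dilutions from near the clinical Cmax, or from 10 microM.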

[1] = second compound 0.0316 µM, first compound 0.0316 µM
[2] = second compound 0.0316 µM, first compound 0.1 µM
[3] = second compound 0.0316 µM, first compound 0.316 µM
[4] = second compound 0.0316 µM, first compound 1 µM
[5] = second compound 0.0316 µM, first compound 3.16 µM
[6] = second compound 0.0316 µM, first compound 10 µM
[7] = second compound 0.1 µM, first compound 0.0316 µM
[8] = second compound 0.1 µM, first compound 0.1 µM
[9] = second compound 0.1 µM, first compound 0.316 µM
[10] = second compound 0.1 µM, first compound 1 µM
[11] = second compound 0.1 µM, first compound 3.16 µM
[12] = second compound 0.1 µM, first compound 10 µM
[13] = second compound 0.316 µM, first compound 0.0316 µM
[14] = second compound 0.316 µM, first compound 0.1 µM
[15] = second compound 0.316 µM, first compound 0.316 µM
[16] = second compound 0.316 µM, first compound 1 µM
[17] = second compound 0.316 µM, first compound 3.16 µM
[18] = second compound 0.316 µM, first compound 10 µM
[19] = second compound 1 µM, first compound 0.0316 µM
[20] = second compound 1 µM, first compound 0.1 µM
[21] = second compound 1 µM, first compound 0.316 µM
[22] = second compound 1 µM, first compound 1 µM
[23] = second compound 1 µM, first compound 3.16 µM
[24] = second compound 1 µM, first compound 10 µM
[25] = second compound 3.16 µM, first compound 0.0316 µM
[26] = second compound 3.16 µM, first compound 0.1 µM
[27] = second compound 3.16 µM, first compound 0.316 µM
[28] = second compound 3.16 µM, first compound 1 µM
[29] = second compound 3.16 µM, first compound 3.16 µM
[30] = second compound 3.16 µM, first compound 10 µM
[31] = second compound 10 µM, first compound 0.0316 µM
[32] = second compound 10 µM, first compound 0.1 µM
[33] = second compound 10 µM, first compound 0.316 µM
[34] = second compound 10 µM, first compound 1 µM
[35] = second compound 10 µM, first compound 3.16 µM
[36] = second compound 10 µM, first compound 10 µM
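Also: spheroids exposed to drugs for 7 days before viability reading.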
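For viability, T/C in this document: 100% = DMSO vehicle control viability.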

Structure (SMILES): CC(=O)O[C@H]1C(=O)[C@@]2(C)[C@H]([C@H](OC(=O)c3ccccc3)[C@]3(O)C[C@H](OC(=O)[C@H](O)[C@@H](NC(=O)c4ccccc4)c4ccccc4)C(C)=C1C3(C)C)[C@]1(OC(C)=O)CO[C@@H]1C[C@@H]2O + Cc1[nH]c2ccc(F)cc2c1-c1nc2c3cccnc3c3ncccc3c2[nH]1
pIC50 (second compound 0.0316 µM): 6.91 | pIC50 (second compound 0.1 µM): 6.84 | pIC50 (second compound 0.316 µM): 6.76 | pIC50 (second compound 1 µM): 6.67 | pIC50 (second compound 3.16 µM): 6.69 | pIC50 (second compound 10 µM): 6.65 | viability, T/C [1]: 90.8% | viability, T/C [2]: 55.8% | viability, T/C [3]: 20.6% | viability, T/C [4]: 0.81% | viability, T/C [5]: 0.38% | viability, T/C [6]: 0.28% | viability, T/C [7]: 96.1% | viability, T/C [8]: 60.2% | viability, T/C [9]: 28.2% | viability, T/C [10]: 0.74% | viability, T/C [11]: 0.23% | viability, T/C [12]: 0.22% | viability, T/C [13]: 107% | viability, T/C [14]: 69.1% | viability, T/C [15]: 30.8% | viability, T/C [16]: 1.26% | viability, T/C [17]: 0.2% | viability, T/C [18]: 1.66% | viability, T/C [19]: 89.1% | viability, T/C [20]: 74.9% | viability, T/C [21]: 37.5% | viability, T/C [22]: 1.83% | viability, T/C [23]: 0.31% | viability, T/C [24]: 0.28% | viability, T/C [25]: 85.4% | viability, T/C [26]: 69% | viability, T/C [27]: 39.2% | viability, T/C [28]: 1.48% | viability, T/C [29]: 0.34% | viability, T/C [30]: 1.18% | viability, T/C [31]: 71.3% | viability, T/C [32]: 65.2% | viability, T/C [33]: 42.9% | viability, T/C [34]: 1.48% | viability, T/C [35]: 0.49% | viability, T/C [36]: 0.31%

pIC50 (second compound 0.0316 µM): 6.95 | pIC50 (second compound 0.1 µM): 6.99 | pIC50 (second compound 0.316 µM): 6.96 | pIC50 (second compound 1 µM): 6.98 | pIC50 (second compound 3.16 µM): > 7.50 | pIC50 (second compound 10 µM): > 7.50
Structure (SMILES): O=C(NO)c1cnc(N2CCN(S(=O)(=O)c3ccc4ccccc4c3)CC2)nc1 + Cc1cnc(CNC(=O)c2c(=O)c3ccc(N4CCCN(C)CC4)nc3n3c2sc2ccccc23)cn1
viability, T/C [1]: 74.7% | viability, T/C [2]: 53.5% | viability, T/C [3]: 13% | viability, T/C [4]: 0.6% | viability, T/C [5]: 0.3% | viability, T/C [6]: 0.28% | viability, T/C [7]: 71.5% | viability, T/C [8]: 50.3% | viability, T/C [9]: 17.4% | viability, T/C [10]: 0.78% | viability, T/C [11]: 0.32% | viability, T/C [12]: 0.29% | viability, T/C [13]: 66.5% | viability, T/C [14]: 52.4% | viability, T/C [15]: 19.1% | viability, T/C [16]: 0.46% | viability, T/C [17]: 0.21% | viability, T/C [18]: 0.18% | viability, T/C [19]: 53.9% | viability, T/C [20]: 50.6% | viability, T/C [21]: 19.6% | viability, T/C [22]: 0.17% | viability, T/C [23]: 0.77% | viability, T/C [24]: 1.29% | viability, T/C [25]: 48.6% | viability, T/C [26]: 42.5% | viability, T/C [27]: 16.1% | viability, T/C [28]: 0.13% | viability, T/C [29]: 0.4% | viability, T/C [30]: 0.75% | viability, T/C [31]: 23.6% | viability, T/C [32]: 13.2% | viability, T/C [33]: 0.25% | viability, T/C [34]: 0.16% | viability, T/C [35]: 0.89% | viability, T/C [36]: 0.27%

pIC50 (second compound 0.0316 µM): 5.07 | pIC50 (second compound 0.1 µM): 5.82 | pIC50 (second compound 0.316 µM): 5.77 | pIC50 (second compound 1 µM): 6.20 | pIC50 (second compound 3.16 µM): 6.53 | pIC50 (second compound 10 µM): > 7.50
Structure (SMILES): COc1ccc([C@@H](O)c2cc(-c3ncnc4cc(N5CCOCC5)ccc34)c(F)cc2Cl)nn1 + Cc1cnc(CNC(=O)c2c(=O)c3ccc(N4CCCN(C)CC4)nc3n3c2sc2ccccc23)cn1
viability, T/C [1]: 99.7% | viability, T/C [2]: 80.7% | viability, T/C [3]: 79.4% | viability, T/C [4]: 77.2% | viability, T/C [5]: 49.2% | viability, T/C [6]: 51.3% | viability, T/C [7]: 92.3% | viability, T/C [8]: 88.4% | viability, T/C [9]: 67.5% | viability, T/C [10]: 50.5% | viability, T/C [11]: 54.6% | viability, T/C [12]: 38.7% | viability, T/C [13]: 84% | viability, T/C [14]: 77.6% | viability, T/C [15]: 63.6% | viability, T/C [16]: 57.1% | viability, T/C [17]: 42.9% | viability, T/C [18]: 37.4% | viability, T/C [19]: 64.5% | viability, T/C [20]: 58.2% | viability, T/C [21]: 58.9% | viability, T/C [22]: 42.5% | viability, T/C [23]: 43% | viability, T/C [24]: 37.6% | viability, T/C [25]: 55.7% | viability, T/C [26]: 59.6% | viability, T/C [27]: 45.2% | viability, T/C [28]: 45.9% | viability, T/C [29]: 40.3% | viability, T/C [30]: 35.4% | viability, T/C [31]: 45.4% | viability, T/C [32]: 27.4% | viability, T/C [33]: 42% | viability, T/C [34]: 38.3% | viability, T/C [35]: 36.3% | viability, T/C [36]: 11%

pIC50 (second compound 0.0316 µM): 6.68 | pIC50 (second compound 0.1 µM): 6.94 | pIC50 (second compound 0.316 µM): 6.80 | pIC50 (second compound 1 µM): 7.20 | pIC50 (second compound 3.16 µM): > 7.50 | pIC50 (second compound 10 µM): > 7.50
Structure (SMILES): CC1COCCN1c1cc(C2(O)CC3CCC(C2)O3)c2cnn(-c3ccn[nH]3)c2n1 (stereo not drawn) + Cc1cnc(CNC(=O)c2c(=O)c3ccc(N4CCCN(C)CC4)nc3n3c2sc2ccccc23)cn1
viability, T/C [1]: 65.1% | viability, T/C [2]: 60.9% | viability, T/C [3]: 42.7% | viability, T/C [4]: 34.6% | viability, T/C [5]: 25.5% | viability, T/C [6]: 13.8% | viability, T/C [7]: 61% | viability, T/C [8]: 49.9% | viability, T/C [9]: 42.3% | viability, T/C [10]: 33% | viability, T/C [11]: 24.9% | viability, T/C [12]: 15.2% | viability, T/C [13]: 56.9% | viability, T/C [14]: 54% | viability, T/C [15]: 47.1% | viability, T/C [16]: 29.7% | viability, T/C [17]: 26.5% | viability, T/C [18]: 13.6% | viability, T/C [19]: 56.2% | viability, T/C [20]: 44.2% | viability, T/C [21]: 38.9% | viability, T/C [22]: 31.4% | viability, T/C [23]: 23.9% | viability, T/C [24]: 13.8% | viability, T/C [25]: 49.2% | viability, T/C [26]: 40.2% | viability, T/C [27]: 41.5% | viability, T/C [28]: 24.8% | viability, T/C [29]: 27.5% | viability, T/C [30]: 14.4% | viability, T/C [31]: 37.7% | viability, T/C [32]: 32.6% | viability, T/C [33]: 33.6% | viability, T/C [34]: 27.9% | viability, T/C [35]: 18.2% | viability, T/C [36]: 4.21%
